Laboratory results from PMC9841298 (Clinical and Translational Science, 2022).
Read-outs that look alike come from different tables or passages of the source.

Assays:
[1] = ref website drug bank, cited from earlier work
[2] = PKPlus two-compartmental PK model fitted to reference product plasma data; set-up: species or system human
[3] = fasting, two-compartmental model, from reference product 2.0 mg data of ref 13

distribution coefficient from the peripheral to central compartment (k21) [2, 3]: 0.086 h⁻¹
distribution constant from the central to the peripheral compartment (k12) [2, 3]: 0.252 h⁻¹
Vd ([2]; human, plasma, oral, 2 mg): 43.2 L
clearance ([2]; human, plasma, oral, 2 mg): 343 mL/min
SMILES: O=C(O)C[C@H](O)C[C@H](O)/C=C/c1c(C2CC2)nc2ccccc2c1-c1ccc(F)cc1 [pitavastatin calcium]
Log P ([1]; model input): 3.75
pKa ([1]; model input): 4.86
Solubility ([1]; pH 4.68): 65.2 µg/mL
Solubility ([1]; water): 3.94 µg/mL
